{"source": "patent US6545041B2", "about": "“Tumor necrosis factor alpha (TNF-α) inhibiting pharmaceuticals” (Yessum Research Development Co. of the Hebrew University of …, priority 1995, dated 2003)", "key": {"[1]": {"test": "Passage of the blood-brain barrier", "from_the_text": "This makes the development of formulations suitable for intravenous administration of HU-211 difficult, hampering its clinical application. Water-soluble derivatives of HU-211 designed to readily release the drug by hydrolysis following i.v. administration might overcome this problem and will be used as prodrugs."}, "[2]": {"test": "Phase I clinical trials, intravenous, healthy human volunteers", "format": "in vivo", "conditions": "dose ranges contemplated for humans"}, "EAE": {"test_system": "EAE", "test": "Experimental autoimmune encephalomyelitis (EAE) in Lewis rats", "format": "in vivo", "conditions": "single iv injection day 10 to 18 post induction, FIG. 6", "from_the_text": "Autoimmune diseases are associated with elevated levels of TNF. The models which are most conveniently studied are experimental allergic encephalomyelitis (EAE) and experimental autoimmune arthritis in rodents. EAE is an autoimmune neurological disease elicited by sensitization of the animals to myelin basic protein from the central nervous system, which is also known as basic encephalitogenic protein. EAE is considered by many to represent a model of the human disease multiple sclerosis. Experimental autoimmune arthritis is induced in animals by immunization with collagen in complete Freund's adjuvant. The ability of compounds of the general formula I to prevent or attenuate the clinical symptoms of these autoimmune diseases was tested.\nThe Lewis rats used were 8 week old females (from OLAC, England). The animals (5 per cage) were maintained on a 12 hour light/12 hour dark regimen, at a constant temperature of 22° C., with food and water ad libitum. EAE was induced in these animals by immunization with purified guinea pig myelin basic protein emulsified in complete Freund's adjuvant. Guinea pig myelin basic protein (mbp) was prepared from spinal cord homogenates defatted with chloroform/ethanol and the isolated protein was purified using ion exchange chromatography. Each animal received 50 micrograms of the purified protein. […]"}, "[3]": {"test_system": "collagen induced arthritis", "test": "Collagen type 2 induced arthritis", "format": "in vivo, CD-1 male mice", "conditions": "HU-211 20 mg/kg i.p. daily or every 3 days; p<0.01", "description": "CD-1 male mice (27-33 gr.), five in each treatment group (supplied by Harlan Israel) were used in the present study. Each animal was administered with collagen type 2 (Sigma, batch no. 111H7180) 100 μg/ml in 0.1 ml complete Freund's adjuvant (Sigma batch no. 084H8800). The collagen was administered s.c. into the base of the tail. The volume of each hind paw was measured using a plathysmometer (Hugo Basill, Italy) before collagen administration and on days 1, 4, 7, 10, 13 and 16 of treatment (30 minutes after drug treatment).\nFive treatment groups were tested in the present study: vehicle (blank cosolvent) 10 ml/kg once daily, HU-211 10 mg/kg every three days, HU-211 20 mg/kg once daily, HU-211 20 mg/kg every 3 days and diclofenac 10 mg/kg (10 ml/kg) every 3 days. All treatments were administered intraperitoneally. HU-211 was used from a 5% preparation in cosolvent (Pharmos batch no. PRN-C-08623041), by diluting with saline (B. Braun batch no. 3431A41A) 1:25. The same procedure was performed with blank cosolvent (Pharmos batch no. 608945). Diclofenac was prepared in Pharmos, batch no. LG-121\\70 1 mg/ml. At the same time paws were measured they were clinically evaluated according to the following method (Williams R. O., Proc. Natl. Acad. Sci. USA: 89:9784-9788): 0—normal, 1—slight swelling and erythema, 2—pronounced edematous swelling and 3—joint rigidity. […]"}, "[4]": {"conditions": "doses several thousand times higher than the ED50 of HU-210; cited from earlier work"}, "TNF [5]": {"test_system": "TNF", "conditions": "rats, 48 hours after HT; cited from earlier work"}, "[6]": {"conditions": "doses far exceeding those contemplated for repression of cytokines; cited from earlier work"}, "TNF [7]": {"test_system": "TNF", "test": "Serum TNF activity (bioassay) and levels (ELISA) in LPS treated mice", "format": "in vivo, mice (C57BL/6)", "conditions": "100 μg LPS ip with 200 μg/mouse compound, 90 min", "description": "An early response to LPS administration is the elevation of serum levels of TNF, which peaks at 1.5-2 hr after LPS administration. Mice treated with LPS serve as a model for the effect of drugs on reducing TNF levels under these conditions.\nSerum levels of TNF peak within 1.5 hr following LPS administration, and at this time point, we assessed both TNF activity and levels in the serum.\nMice (C57BL/6) were injected ip with 100 μg LPS, concomitantly with HU-211, HU-210, or HU-245 (200 μg/mouse), and 90 min later they were bled, the sera separated and TNF was assayed for its activity (bioassay) and levels (using ELISA kit)."}}, "note": "Entries after “also recorded” stand apart in the source; their conditions may differ."}
{"smiles": "CCCCCCC(C)(C)c1cc(O)c2c(c1)OC(C)(C)[C@H]1CC=C(CO)C[C@H]21", "note": "[HU-211, (+)-(3S,4S)-1,1-dimethylheptyl homologue of 7-hydroxy-Δ^6-tetrahydrocannabinol]", "values": [{"measurement": "passage of the blood-brain barrier", "setting": "[1]", "result": "readily passes the blood-brain barrier"}, {"measurement": "toxicity or psychoactivity", "setting": "[2]", "result": "no evidence of toxicity or psychoactivity"}, {"measurement": "mean clinical score", "setting": "EAE", "result": "diminution of mean clinical score"}, {"measurement": "clinical signs of arthritis (swelling of the paws)", "setting": "[3]", "result": "lowest number of these signs"}, {"measurement": "cannabimimetic activity", "setting": "[4]", "result": "inactive as a cannabimimetic"}, {"measurement": "edema and clinical outcome after head trauma", "setting": "TNF [5]", "result": "reduced edema and improved the clinical outcome"}, {"measurement": "stereotypy and locomotor hyperactivity", "setting": "[6]", "result": "induction of stereotypy and locomotor hyperactivity"}, {"measurement": "TNF levels in serum (ELISA)", "setting": "TNF [7]", "result": "significantly reduced; also recorded: attenuated the LPS-induced production and action of TNF to a very pronounced extent"}, {"measurement": "TNF activity (S50) in serum, bioassay", "setting": "TNF [7]; LPS control 1233±237", "result": "significantly reduced; also recorded: attenuated the LPS-induced production and action of TNF to a very pronounced extent"}]}
